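How tested: cells in 96-well plates exposed to compound for 48 hours at five concentrations. TGI denotes the concentration required for complete inhibition of growth.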
Legend:
Assay in all cases: DTP human tumour cell line panel, 48 h
[1] = test system: 786-0 renal
[2] = test system: A498 renal
[3] = test system: A549 NSCLC
[4] = test system: ACHN renal
[5] = test system: CAKI-1 renal
[6] = test system: CCRF-CEM leukemia
[7] = test system: COLO 205 colon
[8] = test system: DLD-1 colon
[9] = test system: DMS 273 small cell lung
[10] = test system: EKVX NSCLC
[11] = test system: HCC-2998 colon
[12] = test system: HCT-116 colon
[13] = test system: HCT-15 colon
[14] = test system: HL-60(TB) leukemia
[15] = test system: HOP-18 NSCLC
[16] = test system: HOP-62 NSCLC
[17] = test system: HOP-92 NSCLC
[18] = test system: HT29 colon
[19] = test system: IGROV1 ovarian
[20] = test system: K-562 leukemia
[21] = test system: KM12 colon
[22] = test system: KM20L2 colon
[23] = test system: LOX IMVI melanoma
[24] = test system: LXFL 529 NSCLC
[25] = test system: M14 melanoma
[26] = test system: M19-MEL melanoma
[27] = test system: MALME-3M melanoma
[28] = test system: MOLT-4 leukemia
[29] = test system: NCI-H226 lung
[30] = test system: NCI-H23 lung
[31] = test system: NCI-H460 lung
[32] = test system: NCI-H522 lung
[33] = test system: OVCAR-3 ovarian
[34] = test system: OVCAR-4 ovarian
[35] = test system: OVCAR-5 ovarian
[36] = test system: OVCAR-8 ovarian
[37] = test system: RPMI-8226 leukemia
[38] = test system: RXF 393 renal
[39] = test system: SF-268 CNS
[40] = test system: SF-295 CNS
[41] = test system: SF-539 CNS
[42] = test system: SK-MEL-2 melanoma
[43] = test system: SK-MEL-28 melanoma
[44] = test system: SK-MEL-5 melanoma
[45] = test system: SK-OV-3 ovarian
[46] = test system: SN12C renal
[47] = test system: SNB-19 CNS
[48] = test system: SNB-75 CNS
[49] = test system: SNB-78 CNS
[50] = test system: SR leukemia
[51] = test system: SW-620 colon
[52] = test system: TK-10 renal
[53] = test system: U251 CNS
[54] = test system: UACC-257 melanoma
[55] = test system: UACC-62 melanoma
[56] = test system: UO-31 renal
[57] = test system: DMS 114 small cell lung

Compound `COc1ccc(C2[C@H]3C(=O)N(c4ccc(Cc5ccc(N6C(=O)[C@@H]7ON(c8ccccc8)C(c8ccc(OC)cc8)[C@@H]7C6=O)cc5)cc4)C(=O)[C@H]3ON2c2ccccc2)cc1` (stereo not given in full) has a TGI [1] greater than 100 µM, a TGI [2] greater than 100 µM and a TGI [3] greater than 100 µM. It also gave a TGI [4] greater than 100 µM, a TGI [5] greater than 100 µM and a TGI [6] greater than 100 µM. For the same compound, the TGI [7] was greater than 100 µM, the TGI [8] was greater than 100 µM and the TGI [9] was greater than 100 µM. The TGI [10] was greater than 100 µM, the TGI [11] was greater than 100 µM and the TGI [12] was greater than 100 µM. It also gave a TGI [13] greater than 100 µM, a TGI [14] greater than 100 µM and a TGI [15] greater than 100 µM. The TGI [16] was greater than 100 µM, the TGI [17] was greater than 100 µM and the TGI [18] was greater than 100 µM. The TGI [19] was greater than 100 µM, the TGI [20] was greater than 100 µM and the TGI [21] was greater than 100 µM. It also gave a TGI [22] greater than 100 µM, a TGI [23] greater than 100 µM and a TGI [24] greater than 100 µM. The TGI [25] was 84.7 µM, the TGI [26] was greater than 100 µM and the TGI [27] was greater than 100 µM. The TGI [28] was greater than 100 µM, the TGI [29] was greater than 100 µM and the TGI [30] was greater than 100 µM. The TGI [31] was greater than 100 µM, the TGI [32] was greater than 100 µM and the TGI [33] was greater than 100 µM. The TGI [34] was greater than 100 µM, the TGI [35] was greater than 100 µM and the TGI [36] was greater than 100 µM. For the same compound, the TGI [37] was greater than 100 µM, the TGI [38] was greater than 100 µM and the TGI [39] was greater than 100 µM. The TGI [40] was greater than 100 µM, the TGI [41] was greater than 100 µM and the TGI [42] was greater than 100 µM. For the same compound, the TGI [43] was greater than 100 µM, the TGI [44] was greater than 100 µM and the TGI [45] was greater than 100 µM. It also gave a TGI [46] greater than 100 µM, a TGI [47] greater than 100 µM and a TGI [48] greater than 100 µM. It also gave a TGI [49] greater than 100 µM, a TGI [50] greater than 100 µM and a TGI [51] greater than 100 µM. It also gave a TGI [52] greater than 100 µM, a TGI [53] greater than 100 µM and a TGI [54] greater than 100 µM. For the same compound, the TGI [55] was greater than 100 µM and the TGI [56] was greater than 100 µM.
`Nc1cc(-c2ccccc2)nn1-c1nsc2ccccc12` gave a TGI [3] greater than 100 µM, a TGI [4] greater than 100 µM and a TGI [6] of 62.3 µM. The TGI [7] was greater than 100 µM, the TGI [57] was greater than 100 µM and the TGI [9] was greater than 100 µM. For the same compound, the TGI [10] was greater than 100 µM, the TGI [11] was greater than 100 µM and the TGI [12] was greater than 100 µM. It also gave a TGI [13] greater than 100 µM, a TGI [14] greater than 100 µM and a TGI [15] greater than 100 µM. It also gave a TGI [16] greater than 100 µM, a TGI [17] greater than 100 µM and a TGI [18] greater than 100 µM. The TGI [19] was greater than 100 µM, the TGI [20] was greater than 100 µM and the TGI [21] was greater than 100 µM. The TGI [22] was greater than 100 µM, the TGI [23] was greater than 100 µM and the TGI [24] was greater than 100 µM. It also gave a TGI [25] greater than 100 µM, a TGI [26] greater than 100 µM and a TGI [28] greater than 100 µM. For the same compound, the TGI [30] was greater than 100 µM, the TGI [31] was greater than 100 µM and the TGI [33] was greater than 100 µM. It also gave a TGI [34] greater than 100 µM, a TGI [35] greater than 100 µM and a TGI [36] greater than 100 µM. The TGI [37] was greater than 100 µM, the TGI [38] was 61.7 µM and the TGI [39] was greater than 100 µM. For the same compound, the TGI [41] was greater than 100 µM, the TGI [42] was greater than 100 µM and the TGI [43] was greater than 100 µM. The TGI [44] was greater than 100 µM, the TGI [46] was greater than 100 µM and the TGI [47] was greater than 100 µM. The TGI [48] was 56.9 µM, the TGI [49] was greater than 100 µM and the TGI [50] was greater than 100 µM. For the same compound, the TGI [51] was greater than 100 µM, the TGI [52] was greater than 100 µM and the TGI [53] was greater than 100 µM. For the same compound, the TGI [54] was greater than 100 µM, the TGI [55] was greater than 100 µM and the TGI [56] was greater than 100 µM.
With `COc1ccc(C2=C3c4cc(OC)c(OC)cc4CCN3C(=S)SS2)cc1OC` the TGI [1] was greater than 100 µM, the TGI [2] was greater than 100 µM and the TGI [3] was greater than 100 µM. For the same compound, the TGI [4] was greater than 100 µM, the TGI [5] was greater than 100 µM and the TGI [6] was greater than 100 µM. It also gave a TGI [7] greater than 100 µM, a TGI [8] greater than 100 µM and a TGI [57] greater than 100 µM. It also gave a TGI [9] greater than 100 µM, a TGI [10] greater than 100 µM and a TGI [11] greater than 100 µM. It also gave a TGI [12] greater than 100 µM, a TGI [13] greater than 100 µM and a TGI [14] greater than 100 µM. It also gave a TGI [15] greater than 100 µM, a TGI [16] greater than 100 µM and a TGI [17] greater than 100 µM. For the same compound, the TGI [18] was greater than 100 µM, the TGI [19] was greater than 100 µM and the TGI [20] was greater than 100 µM. For the same compound, the TGI [21] was greater than 100 µM, the TGI [22] was greater than 100 µM and the TGI [23] was greater than 100 µM. The TGI [24] was greater than 100 µM, the TGI [25] was greater than 100 µM and the TGI [26] was greater than 100 µM. For the same compound, the TGI [27] was 97.6 µM, the TGI [28] was greater than 100 µM and the TGI [29] was greater than 100 µM. It also gave a TGI [30] greater than 100 µM, a TGI [31] greater than 100 µM and a TGI [32] greater than 100 µM. The TGI [33] was greater than 100 µM, the TGI [34] was greater than 100 µM and the TGI [35] was greater than 100 µM. For the same compound, the TGI [36] was greater than 100 µM, the TGI [37] was greater than 100 µM and the TGI [38] was greater than 100 µM. The TGI [39] was greater than 100 µM, the TGI [40] was greater than 100 µM and the TGI [41] was greater than 100 µM. For the same compound, the TGI [42] was greater than 100 µM, the TGI [43] was greater than 100 µM and the TGI [44] was greater than 100 µM. For the same compound, the TGI [45] was greater than 100 µM, the TGI [46] was greater than 100 µM and the TGI [47] was greater than 100 µM. It also gave a TGI [48] greater than 100 µM, a TGI [49] greater than 100 µM and a TGI [51] greater than 100 µM. The TGI [52] was greater than 100 µM, the TGI [53] was greater than 100 µM and the TGI [54] was greater than 100 µM. The TGI [55] was greater than 100 µM and the TGI [56] was greater than 100 µM.

From PubChem BioAssay (NCI)
